{"source": "patent US20110136897A1", "about": "“TOLL-LIKE RECEPTOR 9 AGONISTS FOR THE TREATMENT OF ANXIETY-RELATED DISORDERS AND INFLAMMATORY DISORDERS” (YISSUM RESEARCH DEVELOPMENT COMPANY OF THE HEBREW …, priority 2008, published 2011)", "key": {"[1]": {"target": "T1, glucocorticoid receptor (GR) (Mus musculus, UniProt P06537)", "T1 sequence (P06537 1-792)": "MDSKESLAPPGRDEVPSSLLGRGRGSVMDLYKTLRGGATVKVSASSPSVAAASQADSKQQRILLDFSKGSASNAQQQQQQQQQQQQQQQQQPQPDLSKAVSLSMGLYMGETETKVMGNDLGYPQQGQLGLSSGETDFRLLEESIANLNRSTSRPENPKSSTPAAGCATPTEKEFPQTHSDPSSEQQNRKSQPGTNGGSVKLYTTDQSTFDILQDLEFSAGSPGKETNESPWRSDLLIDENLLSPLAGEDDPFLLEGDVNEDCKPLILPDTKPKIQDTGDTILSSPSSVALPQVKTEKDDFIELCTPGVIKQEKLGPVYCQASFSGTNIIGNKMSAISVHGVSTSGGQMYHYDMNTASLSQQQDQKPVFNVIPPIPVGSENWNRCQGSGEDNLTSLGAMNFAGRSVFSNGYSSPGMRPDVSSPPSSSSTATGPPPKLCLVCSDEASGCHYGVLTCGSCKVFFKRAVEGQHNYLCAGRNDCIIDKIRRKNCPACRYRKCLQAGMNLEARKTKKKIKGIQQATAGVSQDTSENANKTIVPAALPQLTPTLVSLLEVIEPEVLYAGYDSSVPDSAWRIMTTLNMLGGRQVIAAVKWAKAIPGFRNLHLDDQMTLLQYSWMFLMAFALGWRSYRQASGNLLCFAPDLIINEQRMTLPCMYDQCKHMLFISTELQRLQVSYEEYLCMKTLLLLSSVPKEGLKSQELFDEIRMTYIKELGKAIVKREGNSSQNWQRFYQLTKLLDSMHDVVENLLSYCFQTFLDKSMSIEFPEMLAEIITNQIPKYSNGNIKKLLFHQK", "assay": "Glucocorticoid receptor whole cell [3H]dexamethasone binding assay, RAW264.7", "format": "cell-based", "parameters": "host or cells: RAW264.7 (mouse macrophage cell line)", "protocol": "Glucocorticoid receptor assay: A whole cell binding assay was used to determine GR number and affinity. 0.7×10^6 RAW264.7 cells in 2 ml medium were grown in 24-wells plates until 80% confluence was obtained. After the appropriate treatment, the medium was replaced with a saturating concentration of 50 nM [^3H]dexamethasone (85.0 Ci/mmol) (Amersham Biosciences, NJ, USA) in 5 μM unlabeled dexamethasone (Sigma, Israel). After incubation for 2 hours at 37° C., cells were washed 6 times with cold PBS and lysed in 1M NaOH. Lysates were harvested and counted in a beta-spectrometer.\nSince HSP90 modulates GR activity by increasing its affinity to glucocorticoids (GCs) it was wondered whether such an effect could be obtained by activating TLR9. In order to challenge that hypothesis, RAW264.7 cells were incubated with varying concentrations of hEN101 for 24 hours and the medium was subsequently replaced with one containing different concentration of 50 nM [^3H]dexamethasone and 5 μM unlabeled dexamethasone. After a 2 hour incubation, radioactivity was measured in a beta-spectrometer."}, "[2]": {"system": "RAW264.7 cells", "assay": "HSP90 and GR immunostaining and colocalization, confocal microscopy", "format": "cell-based, mouse", "conditions": "24 h, 1-10 μM", "protocol": "Immunohistochemistry: Cells were fixed with 4% PFA in phosphate-buffered saline (PBS) for 15 minutes at room temperature (RT), washed and transferred to 100% MetOH at −20° C. for 5 minutes. Afterwards, cells were washed twice with a blocking medium containing PBS, 1% bovine serum albumin (BSA) and 0.01% NaN3 and then were incubated for 1 hour at RT with anti-HSP90 and anti-GR antibodies (1:50) (Santa Cruz Biotechnology, CA). After incubation, cells were washed twice in blocking medium and incubated with 1:100 secondary antibodies (Jackson Immunoresearch Laboratories, PA). Slides were mounted onto glass slides and visualized by confocal microscopy."}, "[3]": {"system": "RAW264.7 cells", "assay": "Nitric oxide (NO) production, Griess reaction", "format": "cell-based, mouse", "conditions": "for effect on 10 μM mEN101-driven increases in NO: added with 10 μM mEN101", "protocol": "The mouse macrophage cell line RAW 264.7 (ATCC, Bethesda, Md.) was cultured in Dulbecco's modified Eagle's medium (DMEM) (Biological Industries) supplemented with 10% heat-inactivated fetal bovine serum (Biological Industries, Israel), 100 μg/ml streptomycin, 100 U/ml penicillin (Sigma) and 2 mM 1-glutamine (Biological Industries) at 37° C. in a humidified atmosphere with 5% CO2.\n(§1) Determination of nitric oxide (NO) production: Nitrite concentration in the medium of cultured cells was measured as an indicator of NO production according to the Griess reaction. 1×10^5 mouse RAW264.7 cells were grown in 0.5 ml medium in 48-wells plate until 80% confluence was obtained. […] (1% sulfanilamide, 0.1% naphthylethylenediamine dihydrochloride, 5% H3PO4). Absorbance was read at 540 nm after 10 min using SPECTRAFluor Plus spectrophotometer (TECAN, UK).\nTo further characterize the TLR9 activating features of mEN101, mEN101 was applied to RAW264.7 cells (n=4 repeats) for 24 hours and the subsequent production of inflammatory markers was quantified. […] Addition of chloroquine (CQ), a weak base that perturbs endosomal pH and thus disturbs endosomal maturation, as well as the specific TLR9 inhibiting oligonucleotides ODN2088 and ODN TTAGGG (17), all blocked the 10 μM mEN101-driven increases in NO (p<0.015) (FIG. 2A). Thus, both gain and loss of function tests validated the nature of mEN101 as an endosomally active TLR9 activator, albeit a weak one."}, "[4]": {"system": "RAW264.7 cells", "assay": "Nitric oxide (NO) production, Griess reaction", "format": "cell-based, mouse", "conditions": "with 1 μM mEN101"}, "[5]": {"system": "splenocytes", "assay": "IFN-γ induction in splenocytes (ELISA)", "format": "cell-based, mouse", "conditions": "mEN101 even at 10 μM doses", "protocol": "Cell cultures: Spleens were removed from 5-6 week old FVB/N mice (Harlan Laboratories, Israel) and mashed until a homogeneous cell suspension was obtained. The suspension was centrifuged in a LSM Lymphocyte Separation Medium (MP Biomedicals, Solon, Ohio) and the mononuclear cell layer was separated. Cells were adjusted to a 5×10^6 cells/ml and cultured in RPMI 1640 (Biological Industries, Israel) supplemented with 5% FCS, […] L-glut, 100 μg/ml streptomycin, 100 U/ml penicillin and 5×10^−5 2-mercaptoethanol (Sigma, Israel).\nELISA: Serum was extracted by centrifuging blood in heparin-containing Microtainer LH vials (BD, Franklin Lakes, N.J.) for 10 minutes at 3000 g. Serum and cell-culture supernatants were analyzed for IL-1β, IL-6, TNF-α and IFN-γ using respective ELISA Ready-SET-Go (eBioscience, San Diego, Calif.) kits as instructed. Intensities were read using a Tecan SPECTRAFluor Plus spectrophotometer (Mannedorf, Switzerland)."}, "[6]": {"system": "RAW264.7 cells", "assay": "LPS-induced NO production with or without corticosterone after ODN1826 pre-incubation", "format": "cell-based, mouse", "conditions": "10 or 50 mM corticosterone, LPS 1 μg/ml, 24 hours", "protocol": "as §1, with “nitric oxygen” for “nitric oxide”, “production: The nitrite” for “production: Nitrite”, “medium” for “medium of cultured cells”, “1×10^5” for “1×10^5 mouse”, “10 minutes” for “10 min”\nIn order to study the functional effects of TLR9 activation on GR signaling, RAW264.7 cells were incubated with varying concentrations of ODN1826 (SEQ ID NO: 2) for 24 hours and the medium was replaced with one containing LPS (1 μg/ml) with or without […] corticosterone (CORT) for an additional 24 hours. As expected, CORT blocked lipopolysaccharide (LPS)-induced NO production."}, "[7]": {"system": "RAW264.7 cells", "assay": "RT-PCR of inflammatory genes in RAW264.7 cells (Table 2)", "format": "cell-based, mouse", "conditions": "1 ug/ml", "protocol": "Real-time PCR (RT-PCR): Brains were dissected and tissues stored frozen at −70° C. until use. Hippocampal RNA was extracted using the RNeasy Tissue Mini Kit (Qiagen, Germany). Total RNA was reverse-transcribed (200 ng) using Impromp-II reverse transcriptase (Promega, Madison, Wis.) as instructed. RT-PCR was performed using Power SYBR®Green PCR Master Mix (Applied Biosystems, UK) in a 7900 HT Sequence Detection System (Applied Biosystems, Foster City, Calif.). Quantification was assessed at the logarithmic phase of the PCR reaction. The PCR annealing temperature was 60° C. for all primer pairs. GAPDH was used as a house-keeping gene.\nShown are fold differences in RT-PCR products of RAW264.7 cells incubated with the noted doses of mEN101 or ODN1826. Note that ODN1826 affects IL1α, -1β, -6, -10, -12 and ICAM-1 gene expression at concentrations as low as 10 nM, whereas considerably higher doses of mEN101 are needed to attain similar effects. Nevertheless, mEN101 affects inflammatory gene expression even at 10 nM. 1 μg/ml LPS was used as positive control. (n=3, p<0.05 Mann-Whitney U-test compared to untreated controls, for all the data shown)."}}, "note": "In the oligonucleotide strings, read from the 5' end, every base follows the letter of its sugar. An asterisk marks phosphorothioate; unmarked linkages are phosphodiester. Other units and linkages are bracketed, terminal groups are in braces. A string of capitals states the bases alone. d = 2'-deoxy (DNA)"}
{"compound": "5′-CTGCCACGTTCTCCTGCA*C*C*-3′ [hEN101]", "values": [{"measurement": "DEX (GR) Bmax, Scatchard plot analysis", "setting": "[1]; 10 μM per FIG. 10D legend", "result": "increased"}, {"measurement": "concentration from which effects on [3H]dexamethasone incorporation are detectable", "setting": "[1]; 24 hours pre-incubation", "result": "≥ 1", "unit": "µM"}, {"measurement": "whole cell [3H]dexamethasone incorporation / binding", "setting": "[1]; 24 hours pre-incubation, dose-dependent", "result": "increased [^3H]dexamethasone incorporation"}, {"measurement": "GR level", "setting": "[2]", "result": "not GR"}, {"measurement": "colocalization of HSP90 and GR signals", "setting": "[2]", "result": "increased colocalization of HSP90 and GR signals"}, {"measurement": "HSP90 level", "setting": "[2]; dose dependent", "result": "upregulated HSP90"}]}
{"compound": "5′-TTTAGGGTTAGGGTTAGGGTTAGGG-3′ (dT*dT*dT*dA*dG*dG*dG*dT*dT*dA*dG*dG*dG*dT*dT*dA*dG*dG*dG*dT*dT*dA*dG*dG*dG) [ODN TTAGGG]", "values": [{"measurement": "effect on 10 μM mEN101-driven increases in NO", "setting": "[3]", "result": "blocked"}, {"measurement": "effect on mEN101 effects on NO production (FIG. 2A legend)", "setting": "[4]", "result": "abolished"}]}
{"compound": "5′-ggGGTCAACGTTGAgggggg (GGGGTCAACGTTGAGGGGGG; listed as DNA, chemistry not given here) [ODN1585, type-A CpG ODN, Invivogen]", "values": [{"measurement": "induction of IFN-γ", "setting": "[5]", "result": "stronger for ODN1585 than ODN1826"}, {"measurement": "NO production at doses parallel to ODN1826 (10-100 nM)", "setting": "[3]; 24 hours", "result": "totally ineffective"}, {"measurement": "dose needed to initiate detectable NO overproduction", "setting": "[3]; 24 hours", "result": 10, "unit": "µM"}]}
{"compound": "C[C@]12C[C@H](O)[C@H]3[C@@H](CCC4=CC(=O)CC[C@@]43C)[C@@H]1CC[C@@H]2C(=O)CO", "note": "[CORT, corticosterone]", "values": [{"measurement": "LPS-induced NO production", "setting": "[6]", "result": "blocked"}]}
{"compound": "CCN(CC)CCCC(C)Nc1ccnc2cc(Cl)ccc12", "note": "(centres unmarked) [chloroquine]", "values": [{"measurement": "effect on 10 μM mEN101-driven increases in NO", "setting": "[3]", "result": "blocked"}, {"measurement": "effect on mEN101 effects on NO production (FIG. 2A legend)", "setting": "[4]", "result": "abolished"}]}
{"compound": "lipopolysaccharide [LPS, reference compound]", "values": [{"measurement": "ICAM-1 RT-PCR product", "setting": "[7]", "result": "−3.74", "unit": "log2 from NT"}, {"measurement": "IL1a RT-PCR product", "setting": "[7]", "result": 8.86, "unit": "log2 from NT"}, {"measurement": "IL1b RT-PCR product", "setting": "[7]", "result": 5.42, "unit": "log2 from NT"}, {"measurement": "IL6 RT-PCR product", "setting": "[7]", "result": 3.81, "unit": "log2 from NT"}, {"measurement": "IL10 RT-PCR product", "setting": "[7]", "result": 3.20, "unit": "log2 from NT"}, {"measurement": "IL12 RT-PCR product", "setting": "[7]", "result": 8.75, "unit": "log2 from NT"}]}
